The results in this text go back to US20120122225A1, “CARRIER PEPTIDE FRAGMENT AND USE THEREOF” (TOAGOSEI CO. LTD., priority 2009, published 2012).

Assay [1] deals with human iPS cells (cell line 201B2-082008KU). Kind of assay: Evaluation of cell membrane permeability function (2), confocal laser scanning microscopy of fluorescently labeled peptide. The assay is classed as cell-based. The note with it: 1 μM sample; for penetration of the cell membrane from outside the cell / transfer into the cells: 1 hour culture (FIGS. 3, 4), methanol fixed. From the text:
The target cells for transferring the foreign substance were changed from human neonate foreskin fibroblasts to human iPS cells (human induced pluripotent stem cells), and the cell membrane permeability capability of the two samples (constructs for transferring a foreign substance) obtained in Example 1 above was investigated. It should also be noted that the iPS cells (cell line 201B2-082008KU) and the mouse embryonic fibroblast feeder cells (cell line SNL 76/7, hereinafter “MEF”) used in this example were provided by the Yamanaka Research Laboratory of the Institute for Frontier Medical Sciences, Kyoto University (professor Shinya Yamanaka).
First the obtained MEF were inactivated by a mitomycin C treatment (3 hours) and then trypsinized in a 0.25% trypsin solution containing 1 mM EDTA. After the above treatment, the trypsin was deactivated with culture medium containing FBS, and the MEF were adjusted to a suitable cell density using D-MEM medium (Dulbecco's Modified Eagle Medium: Gibco) containing MEF culture medium (7% FBS: Gibco), 2 mM L-glutamine (Gibco), 50 units/mL penicillin, and 50 μg/mL streptomycin (Gibco), and the abovementioned MEF were seeded onto a culture container (in the form of a culture slide or plate) with a surface coating of 0.1% gelatin. In this case, the MEF were seeded so that the cell density would be approximately 1.25×10^5 cells/mL. Next, the abovementioned cell culture containers were incubated overnight at 37° C. in a 5% CO2 atmosphere.
Thereafter, the feeder cells were prepared by removing the MEF culture medium and rinsing with PBS.
Separately, CTK solution (0.25% trypsin solution containing 0.1 mg/mL collagenase IV (Gibco), 1 mM calcium chloride, and 20% KSR (KnockOut® Serum Replacement)) was added to the obtained iPS cell line, the MEF were peeled therefrom, and the cells were rinsed with PBS.
Next, 1 mL hESC culture medium (i.e., human ES cell medium, in this case, DMEM/F12 culture medium (Gibco) containing 20% KSR (Gibco), 2 mM L-glutamine (Gibco), 0.1% nonessential amino acids (Gibco), 0.1 mM 2-mercaptoethanol (Gibco), 50 units/mL penicillin, and 50 μg/mL streptomycin (Invitrogen, 4 ng/mL bFGF (basic fibroblast growth factor)) was added, the iPS cells were peeled off using a cell scraper, and the colony was broken apart by gentle pipetting.
A suspension of iPS cells obtained in this manner was seeded onto the feeder cells in the culture containers that had been prepared as described above. Then, the abovementioned hESC medium was added, and the cell culture containers were incubated overnight at 37° C. in a 5% CO2 atmosphere.
After incubation overnight, the culture medium was removed from the culture containers, and the abovementioned hESC medium to which one of the 1 mM sample solutions prepared in abovementioned Example 1 had been added to make a final sample concentration (pipetted concentration) of 1 μM was added to the culture containers. Then the samples were incubated at 37° C. for either 1 or 4 hours in a 5% CO2 atmosphere.
The cells after 1 hour of culture and cells after 4 hours of culture were each rinsed in PBS (phosphate buffered saline) and fixed with methanol (on ice for 10 min).
Next, the same treatment as in Example 2 was performed, and the localization within the iPS cells of the peptide that was bonded to the fluorescent dye (i.e., fluorescently labeled) was verified using a confocal scanning laser microscope. FIG. 3 is a micrograph showing the results after 1 hour of culture of the cell suspension to which abovementioned Sample No. 1 had been added, and FIG. 4 is a micrograph after 1 hour of culture of the cell suspension to which abovementioned Sample No. 2 had been added.

In assay [2] the test system is Human neonate foreskin fibroblasts (ATCC Catalogue No. CRL-2097). Kind of assay: Evaluation of cell membrane permeability function (1), confocal laser scanning microscopy of fluorescently labeled peptide. It counts as cell-based. The note with it: 1 μM sample. The protocol:
Human neonate foreskin fibroblasts (ATCC Catalogue No. CRL-2097) were used as the eukaryotic cells, and the cell membrane permeability capability of the two samples (constructs for transferring a foreign substance) obtained in Example 1 above was investigated.
More specifically, the abovementioned fibroblasts were cultured in a liquid mixture of 90% Eagle MEM culture medium (containing 0.1% nonessential amino acids, 2 mM L-glutamine, 1 mM sodium pyruvate, and 1.5 g/L sodium hydrogen carbonate) and 10% serum (FBS) as the culture medium.
The cultured cells were trypsinized for 1 min at 37° C. with a 0.25% trypsin solution. After the abovementioned treatment, the trypsin was deactivated with FBS-containing medium, and a cell suspension (test sample for foreign substance transfer) was prepared by adjusting the cell concentration to approximately 5×10^4 cells/mL with the culture medium.
Next, 0.5 mL of the abovementioned cell suspension was placed in a designated cell culturing container (culture slide with a surface coating of 0.1% gelatin), and the cells were incubated overnight at 37° C. in a 5% CO2 atmosphere. After incubation the medium was replaced with fresh culture medium, and the 1 mM sample solutions of each of the samples prepared in abovementioned Example 1 were added to a cell culture container so that the final sample concentration (peptide concentration) would be 1 μM. In this case 0.5 μL of sample solution was added to the container. Then the samples were incubated at 37° C. for either 1 or 4 hours in a 5% CO2 atmosphere.
The cells after 1 hour of culture and the cells after 4 hours of culture were each rinsed in PBS (phosphate buffered saline) and fixed with methanol (on ice for 10 min).
Next the methanol-fixed samples (cells) were mounted using Prolong® Gold Antifade Reagent (Invitrogen) that contains the nuclear stain DAPI (4′,6-diamidino-2-phenylindole). Then the localization within the cells of the peptide bonded to the fluorescent dye (i.e., fluorescently labeled peptide) in each test sample (i.e., the abovementioned mounted test samples after methanol fixation) was verified using a confocal scanning laser microscope.
FIGS. 1 and 2 are micrographs showing the results when abovementioned Sample No. 1 was added to the liquid suspension of cells.

* marks the point of attachment. FITC = O=C1OC2(c3ccc(O)cc3Oc3cc(O)ccc32)c2ccc(NC(=S)*)cc21; Ahx = NCCCCCC(=O)O

Regarding (FAM)-WRRQARFK [Sample No. 1], the cell membrane permeability result in assay [1] and in assay [2] was “exhibited excellent cell membrane permeability” in each case. The results for the “translocation into the nucleus (DAPI nuclear staining)” value in assay [1] and in assay [2] (1 or 4 hours culture) were “had further translocated into the nucleus” and “had translocated into the nucleus”, respectively. The “penetration of the cell membrane from outside the cell / transfer into the cells” value is “penetrated the cell membrane from outside the cell rapidly after addition and were transferred into the cells” in assay [1]; “penetrated the cell membrane from outside the cell rapidly after it was added, and thus was transferred into the cells” in assay [2] (1 or 4 hours culture, methanol fixed).

In the case of “(FITC)-(Acp)-WRRQARFKGTLKERCLQVVRSLVK ({FITC-Ahx}-WRRQARFKGTLKERCLQVVRSLVK-NH2; SMILES CC(C)C[C@H](NC(=O)[C@H](CS)NC(=O)[C@H](CCCNC(=N)N)NC(=O)[C@H](CCC(=O)O)NC(=O)[C@H](CCCCN)NC(=O)[C@H](CC(C)C)NC(=O)[C@@H](NC(=O)CNC(=O)[C@H](CCCCN)NC(=O)[C@H](Cc1ccccc1)NC(=O)[C@H](CCCNC(=N)N)NC(=O)[C@H](C)NC(=O)[C@H](CCC(N)=O)NC(=O)[C@H](CCCNC(=N)N)NC(=O)[C@H](CCCNC(=N)N)NC(=O)[C@H](Cc1c[nH]c2ccccc12)NC(=O)CCCCCNC(=S)Nc1ccc2c(c1)C(=O)OC21c2ccc(O)cc2Oc2cc(O)ccc21)[C@@H](C)O)C(=O)N[C@@H](CCC(N)=O)C(=O)N[C@H](C(=O)N[C@H](C(=O)N[C@@H](CCCNC(=N)N)C(=O)N[C@@H](CO)C(=O)N[C@@H](CC(C)C)C(=O)N[C@H](C(=O)N[C@@H](CCCCN)C(N)=O)C(C)C)C(C)C)C(C)C) [Sample No. 2, FITC bonded via linker Acp (6-aminohexanoic acid) to the N-terminus of Peptide 2; construct for transferring a foreign substance]”, in assay [1], the cell membrane permeability entry is on record as “exhibited excellent cell membrane permeability”; the “translocation into the nucleus (DAPI nuclear staining)” value is “had further translocated into the nucleus”; the “penetration of the cell membrane from outside the cell / transfer into the cells” value is “penetrated the cell membrane from outside the cell rapidly after addition and were transferred into the cells”. In addition, the cell membrane permeability result in assay [2] was “exhibited excellent cell membrane permeability”.
